From patent US10363239B2, “Method for inhibiting growth of cancer cells” (Pain Therapeutics, Inc., priority 2013, dated 2019) come the findings set out here.

Test [1] concerns mu opiate receptor (MOR). The test is described as follows: MOR agonist activity using [35S]GTPγS binding assay in striatal membranes. The note with it: for MOR agonist activity ([35S]GTPγS binding), FLNA-Binding Compound as Agonist 0.1 μM: 0.1 μM compound; for % DAMGO (0.1 μM): 0.1 μM compound relative to DAMGO; for MOR agonist activity ([35S]GTPγS binding), FLNA-Binding Compound as Agonist 1 μM: 1 μM compound; for MOR agonist activity ([35S]GTPγS binding), FLNA-Binding Compound as Agonist 1 μM + BFNA: 1 μM compound + 1 μM β-funaltrexamine; for % DAMGO + BFNA: 1 μM compound + BFNA relative to DAMGO + BFNA; for % DAMGO (1 μM): 1 μM compound relative to DAMGO. It counts as biochemical. Summed up: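 Striatal membranes (200 μg) were preincubated 5 min at 30 °C in HEPES pH 7.5 with 100 mM NaCl, 1 mM MgCl2 and 0.5 nM [35S]GTPγS, then 5 min more with 0.1–10 μM compound. Gαo was immunoprecipitated and bound radioactivity counted by scintillation.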

Test [2] deals with FLNA pentapeptide of SEQ ID NO: 1 (Bn-VAKGL) (Homo sapiens, UniProt P21333). The test is described as follows: FITC-NLX-based FLNA screening assay (inhibition of FITC-naloxone binding to Bn-VAKGL on streptavidin plates). Particulars: 10 nM FITC-NLX.
Setting [3] is: FLNA-binding compound 0.01 μM, read-out: Percent Binding Inhibition.
[4] abbreviates: FLNA-binding compound 0.1 μM, read-out: Percent Binding Inhibition.
Setting [5] is: FLNA-binding compound 1 μM, read-out: Percent Binding Inhibition.
The mark [6] stands for this setting: read-out: Percent Binding Inhibition, FLNA-binding compound 0.01 μM.
The mark [7] stands for this setting: read-out: Percent Binding Inhibition, FLNA-binding compound 0.1 μM.
Where [8] appears, read: read-out: Percent Binding Inhibition, FLNA-binding compound 1 μM.

Read-outs that look alike come from different tables or passages of the source.

On to `CC1CN(CC(O)COc2ccccc2C(C)C)CC(C)O1` (stereo not drawn) [Compound A0029], for which, in test [1], the “MOR agonist activity ([35S]GTPγS binding), FLNA-Binding Compound as Agonist 0.1 μM” value (shortened to “MOR agonist activity … as Agonist 0.1 μM”) was found to be 173.8%; the “% DAMGO (0.1 μM)” value turned out to be 98.4%; the “MOR agonist activity ([35S]GTPγS binding), FLNA-Binding Compound as Agonist 1 μM” value was 206.5%; the “MOR agonist activity ([35S]GTPγS binding), FLNA-Binding Compound as Agonist 1 μM + BFNA” value (shortened to “MOR agonist activity … as Agonist 1 μM + BFNA”) worked out at 22.3%. Further, in test [1], the “% DAMGO + BFNA” value was determined as 84.8% and the “% DAMGO (1 μM)” value turned out to be 81.2%. For the same molecule, in test [2] (setting [3]), the inhibition at 0.01 µM is 44.4%. The inhibition at 0.1 µM in test [2] (setting [4]) was determined as 44.4%. Besides, the inhibition at 1 µM in test [2] (setting [5]) came out at 50.8%.
Regarding `Cc1cccc(OCC(O)CN2CC(C)OC(C)C2)c1` (stereo not drawn) [Compound A0030], in test [1], the “MOR agonist activity … as Agonist 0.1 μM” value is on record as 133.4%; the “% DAMGO (0.1 μM)” value was found to be 75.5%; the “MOR agonist activity ([35S]GTPγS binding), FLNA-Binding Compound as Agonist 1 μM” value was found to be 287.8%; the “MOR agonist activity … as Agonist 1 μM + BFNA” value is 165.2%. Also, in test [1], the “% DAMGO + BFNA” value came to 628.1% and the “% DAMGO (1 μM)” value is reported as 113.2%. Besides, the inhibition at 0.01 µM in test [2] (setting [3]) came out at 35.6%. The inhibition at 0.1 µM in test [2] (setting [4]) worked out at 44.4%. Moreover, the inhibition at 1 µM in test [2] (setting [5]) is 48.9%.
For `CC1CCC(C(C)C)C(OCC(O)CN2CCN(CCN3CCCCC3)CC2)C1` (stereo not drawn) [Compound A0031], in test [1], the “MOR agonist activity … as Agonist 0.1 μM” value is 178.2%; the “% DAMGO (0.1 μM)” value is 100.9%; the “MOR agonist activity ([35S]GTPγS binding), FLNA-Binding Compound as Agonist 1 μM” value is given as 297.0%; the “MOR agonist activity … as Agonist 1 μM + BFNA” value worked out at 150.9%. Moreover, in test [1], the “% DAMGO + BFNA” value amounted to 573.8% and the “% DAMGO (1 μM)” value was found to be 116.8%. The inhibition at 0.01 µM in test [2] (setting [3]) was 40.8%. In test [2] (setting [4]), the inhibition at 0.1 µM amounted to 47.6%. Also, the inhibition at 1 µM in test [2] (setting [5]) came to 52.9%.
With `CC1CCC(C(C)C)C(OCC(O)CN2CC(C)OC(C)C2)C1` (stereo not drawn) [Compound A0032-1], in test [1], the “MOR agonist activity … as Agonist 0.1 μM” value is listed as 187.4%; the “% DAMGO (0.1 μM)” value worked out at 95.5%; the “MOR agonist activity ([35S]GTPγS binding), FLNA-Binding Compound as Agonist 1 μM” value is on record as 324.5%; the “MOR agonist activity … as Agonist 1 μM + BFNA” value is on record as 224.5%. Besides, in test [1], the “% DAMGO + BFNA” value is 303.8% and the “% DAMGO (1 μM)” value was determined as 117.6%. The inhibition at 0.01 µM in test [2] (setting [3]) stood at 35.6%. For the same molecule, the inhibition at 0.1 µM in test [2] (setting [4]) was 43.9%. For the same molecule, in test [2] (setting [5]), the inhibition at 1 µM was 50%.
Take `CCN(CC)CC(O)COC1CC(C)CCC1C(C)C` (stereo not drawn) [Compound A0032]: in test [1], the “MOR agonist activity … as Agonist 0.1 μM” value is on record as 226.9%; the “% DAMGO (0.1 μM)” value was 115.6%; the “MOR agonist activity ([35S]GTPγS binding), FLNA-Binding Compound as Agonist 1 μM” value is on record as 257.8%; the “MOR agonist activity … as Agonist 1 μM + BFNA” value came to 133.0%. Further, in test [1], the “% DAMGO + BFNA” value came to 180.0% and the “% DAMGO (1 μM)” value stood at 93.4%. Moreover, in test [2] (setting [6]), the inhibition at 0.01 µM came to 43%. For the same molecule, in test [2] (setting [7]), the inhibition at 0.1 µM was 50.3%. Besides, in test [2] (setting [8]), the inhibition at 1 µM worked out at 54.5%.
For `CC1CCC(C(C)C)C(OCC(O)CN2CCCC2=O)C1` (stereo not drawn) [Compound A0035], in test [1], the “MOR agonist activity … as Agonist 0.1 μM” value was determined as 120.6%; the “% DAMGO (0.1 μM)” value is listed as 61.5%; the “MOR agonist activity ([35S]GTPγS binding), FLNA-Binding Compound as Agonist 1 μM” value was found to be 158.8%; the “MOR agonist activity … as Agonist 1 μM + BFNA” value amounted to 88.6%. Also, in test [1], the “% DAMGO + BFNA” value turned out to be 119.9% and the “% DAMGO (1 μM)” value came to 57.5%. Further, the inhibition at 0.01 µM in test [2] (setting [3]) was determined as 40.3%. Further, the inhibition at 0.1 µM in test [2] (setting [4]) was 45.5%. In addition, the inhibition at 1 µM in test [2] (setting [5]) came out at 54.9%.
Regarding `CC1CCC(C(C)C)C(OCC(O)CN2CCCCC2=O)C1` (stereo not drawn) [Compound A0036], in test [1], the “MOR agonist activity … as Agonist 0.1 μM” value came out at 144.1%; the “% DAMGO (0.1 μM)” value worked out at 73.4%; the “MOR agonist activity ([35S]GTPγS binding), FLNA-Binding Compound as Agonist 1 μM” value amounted to 167.5%; the “MOR agonist activity … as Agonist 1 μM + BFNA” value was found to be 63.2%. Further, in test [1], the “% DAMGO + BFNA” value is reported as 85.5% and the “% DAMGO (1 μM)” value came out at 60.7%. Further, the inhibition at 0.01 µM in test [2] (setting [3]) amounted to 45.6%. Moreover, in test [2] (setting [4]), the inhibition at 0.1 µM was 50.1%. For the same molecule, the inhibition at 1 µM in test [2] (setting [5]) turned out to be 54.4%.
For the molecule `CC1CCC(C(C)C)C(OCC(O)CN(C(C)C)C(C)C)C1` (stereo not drawn) [Compound A0037], in test [1], the “MOR agonist activity … as Agonist 0.1 μM” value is 177.9%; the “% DAMGO (0.1 μM)” value was found to be 90.7%; the “MOR agonist activity ([35S]GTPγS binding), FLNA-Binding Compound as Agonist 1 μM” value was 236.2%; the “MOR agonist activity … as Agonist 1 μM + BFNA” value is 104.6%. Besides, in test [1], the “% DAMGO + BFNA” value stood at 141.5% and the “% DAMGO (1 μM)” value came to 85.6%. In addition, in test [2] (setting [6]), the inhibition at 0.01 µM was 49.3%. In addition, the inhibition at 0.1 µM in test [2] (setting [7]) was determined as 51.3%. In test [2] (setting [8]), the inhibition at 1 µM worked out at 56.8%.
